Results published in patent US8188135B2, “Compounds as cannabinoid receptor ligands” (priority 2008, dated 2012).
Like-named read-outs stand apart in the source and are kept apart here.

Columns and labels:
[1] = target: T1, Rat CB1 (Rattus norvegicus, UniProt P20272); experiment: rat CB1 cyclase functional assay (HitHunter cAMP); assay type: cell-based; settings: HEK cells, forskolin 37 μM
T1 construct: expressed in transfected cells; host or cells: HEK
Procedure: (§1) The cyclase functional assays were performed using the HitHunter™ cAMP assay kit from DiscoveRx (Fremont, Calif.) according to vendor's protocol. Briefly, HEK cells expressing CB2 or CB1 receptors (rat or human) were detached using cell dissociation buffer (Invitrogen, Carlsbad, Calif.), dispersed and placed in suspension at 10,000 cells per well in 96 well plates prior to the assay. Cell suspensions were incubated at 37° C. for 20 min with variable concentrations of test ligands and or 10 μM CP 55,940-positive control in the presence of a fixed concentration of forskolin (18 μM for rat CB2 and 37 μM for rat CB1) in Dulbescco's phosphate-buffered saline (Invitrogen, Carlsbad, Calif.) supplemented with bovine serum albumin (0.01% final concentration). The reactions were terminated by the addition of lysis buffer and the luminescence was detected following the procedure according to the manufacturer's instructions. EC50 values were calculated using sigmoidal dose-response curve fitting from Prism (GraphPad).

[2] = target: T2, rat CB2 (Rattus norvegicus, UniProt Q9QZN9); experiment: rat CB2 radioligand binding assay ([3H]CP 55,940 competition); design: expressed in transfected cells; host or cells: HEK293; settings: HEK293 membranes, 0.5 nM [3H]CP 55,940
T2 sequence (Q9QZN9 1-360): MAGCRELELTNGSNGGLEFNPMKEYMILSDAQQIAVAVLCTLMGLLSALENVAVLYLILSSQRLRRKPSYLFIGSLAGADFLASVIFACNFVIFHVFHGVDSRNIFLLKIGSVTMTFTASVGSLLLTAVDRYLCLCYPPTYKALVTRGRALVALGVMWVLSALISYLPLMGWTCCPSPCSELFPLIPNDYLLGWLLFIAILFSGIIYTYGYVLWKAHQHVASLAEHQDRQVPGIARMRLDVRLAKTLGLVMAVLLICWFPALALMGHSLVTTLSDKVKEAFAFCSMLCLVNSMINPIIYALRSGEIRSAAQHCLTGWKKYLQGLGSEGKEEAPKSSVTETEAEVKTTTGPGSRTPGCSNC
Procedure, shortened: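 Competition binding against 0.5 nM [3H]CP 55,940 (pH 7.4 buffer with 0.5 mg/mL BSA, 30 °C, 45 min), with displacers spanning 0.01 nM–10 μM at five concentrations. Receptor source: stably transfected HEK293 membranes, 20 μg/well. Nonspecific binding defined by 10 μM unlabeled CP 55,940; readout by filtration and counting.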

[3] = target: T3, human CB2 receptors (Homo sapiens, UniProt P34972); experiment: human CB2 radioligand binding assay ([3H]CP 55,940 competition); settings: HEK293 membranes, 0.5 nM [3H]CP 55,940
T3 construct: expressed in transfected cells; host or cells: HEK293
Procedure, shortened: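 Displacement of 0.5 nM [3H]CP 55,940 over 0.01 nM-10 μM test compound, measured on human CB2 membranes from stably transfected HEK293 cells. Incubation 90 min at 30 °C in Tris/EDTA/MgCl2/BSA, pH 7.4, then filter-bound radioactivity counted; 10 μM unlabeled CP 55,940 defined nonspecific binding.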

[4] = target: T2, rat CB2; experiment: rat CB2 cyclase functional assay (HitHunter cAMP); assay type: cell-based; design: expressed in transfected cells; host or cells: HEK; settings: HEK cells, forskolin 18 μM
Procedure: as §1

[5] = read-out: Rat CB1 cyclase (EC50)
[6] = read-out: rat CB2 cyclase (EC50)

T1 sequence (P20272 whole entry): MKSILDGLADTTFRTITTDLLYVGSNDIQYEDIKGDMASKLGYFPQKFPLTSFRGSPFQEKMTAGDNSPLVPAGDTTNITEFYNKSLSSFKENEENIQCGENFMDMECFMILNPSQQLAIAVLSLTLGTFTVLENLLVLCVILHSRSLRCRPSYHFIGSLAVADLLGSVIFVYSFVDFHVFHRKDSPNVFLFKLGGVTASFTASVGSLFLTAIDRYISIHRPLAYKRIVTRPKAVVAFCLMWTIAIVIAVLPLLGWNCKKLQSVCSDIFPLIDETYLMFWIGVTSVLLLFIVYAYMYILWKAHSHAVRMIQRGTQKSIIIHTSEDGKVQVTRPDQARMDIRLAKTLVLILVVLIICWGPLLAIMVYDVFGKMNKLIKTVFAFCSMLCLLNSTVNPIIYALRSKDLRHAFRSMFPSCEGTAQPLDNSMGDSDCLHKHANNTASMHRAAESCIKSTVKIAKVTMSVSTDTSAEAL
T3 sequence (P34972 whole entry): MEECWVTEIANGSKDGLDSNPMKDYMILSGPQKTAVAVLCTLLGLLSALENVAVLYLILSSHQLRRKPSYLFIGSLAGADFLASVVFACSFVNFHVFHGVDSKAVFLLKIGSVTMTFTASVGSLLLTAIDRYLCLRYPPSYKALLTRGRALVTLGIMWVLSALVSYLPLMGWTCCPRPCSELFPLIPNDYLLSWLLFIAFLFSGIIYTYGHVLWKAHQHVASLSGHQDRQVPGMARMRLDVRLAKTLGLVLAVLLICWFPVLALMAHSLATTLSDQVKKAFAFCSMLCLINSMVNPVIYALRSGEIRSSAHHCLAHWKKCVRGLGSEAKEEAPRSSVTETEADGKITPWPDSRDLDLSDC

SMILES	EC50 ([1]; Rat CB1 cyclase (EC50, nM)) [nM]	Ki ([2]; rat CB2 (Ki, nM)) [nM]	Ki ([3]; human CB2 (Ki, nM)) [nM]	EC50 ([4]; rat CB2 cyclase (EC50, nM)) [nM]	EC50 [1, 5] [nM]	EC50 [4, 6] [nM]	Ki ([2]; read-out: rat CB2 (Ki)) [nM]	Ki ([3]; read-out: human CB2 (Ki)) [nM]
CCCCn1nc(C(C)(C)C)s/c1=N\C(=O)c1cc(C(F)(F)F)ccc1OC[C@@H]1CCCN1C [Example 29, N-[(2Z)-3-butyl-5-tert-butyl-1,3,4-thiadiazol-2(3H)-ylidene]-2-{[(2S)-1-methylpyrrolidin-2-yl]methoxy}-5-(trifluoromethyl)benzamide]	1680	11	14	3.7				
Cn1c(C(C)(C)C)c/c(=N\C(=O)c2cc(C(F)(F)F)ccc2OC[C@@H]2CCCO2)n1Cc1ccc(F)cc1 [Example 30, N-[(3E)-5-tert-butyl-2-(4-fluorobenzyl)-1-methyl-1,2-dihydro-3H-pyrazol-3-ylidene]-2-[(2S)-tetrahydrofuran-2-ylmethoxy]-5-(trifluoromethyl)benzamide]	> 27000	23	28	2.5				
CN1CCC[C@H]1COc1ccc(C(F)(F)F)cc1C(=O)/N=c1\oc(C(C)(C)C)cn1C[C@H]1CCCO1 [Example 32, N-[(2Z)-5-tert-butyl-3-[(2R)-tetrahydrofuran-2-ylmethyl]-1,3-oxazol-2(3H)-ylidene]-2-{[(2S)-1-methylpyrrolidin-2-yl]methoxy}-5-(trifluoromethyl)benzamide]	3870	75	88	0.6				
CN1CCC[C@H]1COc1ccc(C(F)(F)F)cc1C(=O)/N=C1\SC(C)(C)CN1C[C@H]1CCCO1 [Example 33, N-{(2Z)-5,5-dimethyl-3-[(2R)-tetrahydrofuran-2-ylmethyl]-1,3-thiazolidin-2-ylidene}-2-{[(2S)-1-methylpyrrolidin-2-yl]methoxy}-5-(trifluoromethyl)benzamide]	5380	20	23	0.09				
CN1CCC[C@H]1COc1ccc(C(F)(F)F)cc1C(=O)/N=c1\cc(C(C)(C)C)on1C[C@H]1CCCO1 [Example 39, N-[(3E)-5-tert-butyl-2-[(2R)-tetrahydrofuran-2-ylmethyl]isoxazol-3(2H)-ylidene]-2-{[(2S)-1-methylpyrrolidin-2-yl]methoxy}-5-(trifluoromethyl)benzamide]	2620	46	62	0.63				
Cn1c(C(C)(C)C)c/c(=N\C(=O)c2cc(C(F)(F)F)ccc2OCc2cnccn2)n1C[C@H]1CCCO1 [Example 40, N-{(3E)-5-tert-butyl-1-methyl-2-[(2R)-tetrahydrofuran-2-ylmethyl]-1,2-dihydro-3H-pyrazol-3-ylidene}-2-(pyrazin-2-ylmethoxy)-5-(trifluoromethyl)benzamide]	> 27000	73	126	3.3				
Cn1c(C(C)(C)C)c/c(=N\C(=O)c2cc(C(F)(F)F)ccc2OCCNC(=O)OC(C)(C)C)n1C[C@H]1CCCO1 [Example 41, tert-butyl 2-[2-[({(3E)-5-tert-butyl-1-methyl-2-[(2R)-tetrahydrofuran-2-ylmethyl]-1,2-dihydro-3H-pyrazol-3-ylidene}amino)carbonyl]-4-(trifluoromethyl)phenoxy]ethylcarbamate]		21	96		> 27000	1000		
Cn1c(C(C)(C)C)c/c(=N\C(=O)c2cc(C(F)(F)F)ccc2OCC(O)CO)n1C[C@H]1CCCO1 (stereo partly shown) [Example 42]	6100	11	20	0.34				
Cn1c(C(C)(C)C)c/c(=N\C(=O)c2cc(C(F)(F)F)ccc2OCc2cccnc2)n1C[C@H]1CCCO1 [Example 43, N-{(3E)-5-tert-butyl-1-methyl-2-[(2R)-tetrahydrofuran-2-ylmethyl]-1,2-dihydro-3H-pyrazol-3-ylidene}-2-(pyridin-3-ylmethoxy)-5-(trifluoromethyl)benzamide]	> 27000	56	220	2.4				
Cn1c(C(C)(C)C)c/c(=N\C(=O)c2cc(C(F)(F)F)ccc2OCCNS(C)(=O)=O)n1C[C@H]1CCCO1 [Example 45, N-{(3E)-5-tert-butyl-1-methyl-2-[(2R)-tetrahydrofuran-2-ylmethyl]-1,2-dihydro-3H-pyrazol-3-ylidene}-2-{2-[(methylsulfonyl)amino]ethoxy}-5-(trifluoromethyl)benzamide]	4940	7.8	19	0.47				
CCOCCOCCOc1ccc(C(F)(F)F)cc1C(=O)/N=c1\cc(C(C)(C)C)n(C)n1C[C@H]1CCCO1 [Example 47, N-{(3E)-5-tert-butyl-1-methyl-2-[(2R)-tetrahydrofuran-2-ylmethyl]-1,2-dihydro-3H-pyrazol-3-ylidene}-2-[2-(2-ethoxyethoxy)ethoxy]-5-(trifluoromethyl)benzamide]	> 27000	89	70	5.6				
Cn1c(C(C)(C)C)c/c(=N\C(=O)c2cc(C(F)(F)F)ccc2OCCNS(=O)(=O)C2CC2)n1C[C@H]1CCCO1 [Example 49, N-{(3E)-5-tert-butyl-1-methyl-2-[(2R)-tetrahydrofuran-2-ylmethyl]-1,2-dihydro-3H-pyrazol-3-ylidene}-2-{2-[(cyclopropylsulfonyl)amino]ethoxy}-5-(trifluoromethyl)benzamide]	4190	2.7	13	0.12				
CCS(=O)(=O)NCCOc1ccc(C(F)(F)F)cc1C(=O)/N=c1\cc(C(C)(C)C)n(C)n1C[C@H]1CCCO1 [Example 50]	1180	8.5	21	0.12				
Cn1c(C(C)(C)C)c/c(=N\C(=O)c2cc(C(F)(F)F)ccc2OC[C@@H]2CCC(C)(C)O2)n1C[C@H]1CCCO1 [Example 52]					> 27000	0.93	19	10
Cn1c(C(C)(C)C)c/c(=N\C(=O)c2cc(C(F)(F)F)ccc2OCCC2=CCCC2)n1C[C@H]1CCCO1 [Example 53, N-{(3E)-5-tert-butyl-1-methyl-2-[(2R)-tetrahydrofuran-2-ylmethyl]-1,2-dihydro-3H-pyrazol-3-ylidene}-2-(2-cyclopent-1-en-1-ylethoxy)-5-(trifluoromethyl)benzamide]	1970	2.8	1.5	2.7				
Cn1c(C(C)(C)C)c/c(=N\C(=O)c2cc(C(F)(F)F)ccc2OCCS(C)(=O)=O)n1C[C@H]1CCCO1 [Example 56]	2780	28	66	0.93				
CSCCOc1ccc(C(F)(F)F)cc1C(=O)/N=c1\cc(C(C)(C)C)n(C)n1C[C@H]1CCCO1 [Example 57]	7530	1.9	11	1.4				
CSCCCOc1ccc(C(F)(F)F)cc1C(=O)/N=c1\cc(C(C)(C)C)n(C)n1C[C@H]1CCCO1 [Example 58]	> 27000	5.1	3.9	0.7				
Cn1c(C(C)(C)C)c/c(=N\C(=O)c2cc(C(F)(F)F)ccc2OCCCS(C)(=O)=O)n1C[C@H]1CCCO1 [Example 60, N-{(3E)-5-tert-butyl-1-methyl-2-[(2R)-tetrahydrofuran-2-ylmethyl]-1,2-dihydro-3 H-pyrazol-3-ylidene}-2-[3-(methylsulfonyl)propoxy]-5-(trifluoromethyl)benzamide]	> 27000	42	92	0.26				
